The values below come from patent publication US20260152533A1, “COMBINATION INHIBITORS FOR TREATING FIBROSIS” (Memorial Sloan-Kettering Cancer Center, priority 2021, published 2026).

Holding throughout (format): cell-based, mouse
Experiment [1] relates to NIH-3T3 cells. Briefly: Relative metabolite abundance (GC-MS), NIH-3T3 cells. Particulars: for TGFβ-induced depletion of TCA cycle intermediates and NEAAs: 10% Gln, metabolite 5 mM, 48 hours (FIG. 8I). As for the experimental part:
Cells were plated in six-well cell culture plates at a concentration aimed to reach 0.5-1×10^6 cells at the time of harvest. For quantification of relative metabolite abundance, cells were cultured with glutamine-free DMEM containing different concentrations of L-glutamine and supplemented with 10% dialyzed FBS and in some experiments were treated with TGFβ for 48 hours. For the [U-^13C]and [3,4-^13C]glucose tracing experiments, cells were cultured as above, and in the last 8 hours media was replaced with DMEM without D-glucose and L-glutamine supplemented with 2 mM or 0.2 mM L-glutamine and 10 mM [U-^13C]or [3,4-^13C]D-glucose (Cambridge Isotope Laboratories) and 10% dialyzed FBS. […] For relative quantification of metabolites by gas chromatography-mass spectroscopy (GC-MS), cells were washed briefly with PBS, which was then fully aspirated and metabolism was quenched by immediately adding 1 mL of 80:20 methanol:water stored at −80° C. containing 20 μM deuterated 2-hydroxyglutarate (d5-2HG) as an internal standard. […]
GC-MS measurements were performed as described before^11. Ions used for quantification of metabolite levels were as follows: d5-2HG m/z 354; citrate m/z 465; alpha-ketoglutarate m/z 304; succinate m/z 247; fumarate m/z 245; malate m/z 335; aspartate m/z 232; hydroxyproline m/z 332; proline m/z 216; glutamate m/z 246; glutamine m/z 245; lactate m/z 219; pyruvate m/z 174. […] For relative quantification of cell samples, integrated peak areas were normalized to the internal standard d5-2HG and to the packed cell volume of each sample. Absolute quantification of hydroxyproline in tumor acid hydrolysates was performed against a standard curve of commercial trans-4-hydroxy-L-proline (Sigma). […]

The subject of experiment [2] is NIH-3T3 cells. Briefly: Translation assay (OPP), NIH-3T3 cells. The settings on record: TGFβ. The protocol: Cells were treated as indicated and incubated with 20 μM O-propargyl-puromycin (OPP, Thermo Scientific) for the last 1 hour of the experiment. Cells were harvested by trypsinization and fixed with methanol at −20° C., followed by permeabilization with 0.5% Triton X-100 in phosphate-buffered saline (PBS).

Experiment [3] deals with NIH-3T3 cells. Put plainly: tRNA charging assay, NIH-3T3 cells. The protocol:
Charging status of the indicated tRNA isodecoders was measured as previously described^20. In brief, Trizol-chloroform extracts were precipitated with 2.7× volumes of cold ethanol in the presence of 30 μg GlycoBlue (ThermoFisher) overnight. Samples were resuspended in 0.3 M acetate buffer (pH 4.5) with 10 mM ethylenediamine tetraacetic acid (EDTA) and precipitated overnight. Samples were resuspended in 10 mM acetate buffer with 1 mM EDTA. 2 μg of each RNA sample was treated with 10 mM of either sodium periodate (Sigma) (‘oxidized sample’) or sodium chloride (‘non-oxidized sample’) and incubated for 20 minutes at room temperature in the dark. Reactions were quenched with glucose for 15 minutes. Yeast Phe-tRNA (Sigma) was spiked into each sample, followed by ethanol precipitation. Samples were resuspended in 50 mM Tris buffer (pH 9) and incubated for 50 minutes at 37° C., quenched with acetate buffer and precipitated. […] Reverse transcription was performed with SuperScript IV reverse transcriptase (Thermo Scientific) according to the manufacturer's instructions, with a primer complementary to the DNA adaptor. cDNA samples were subjected to qPCR with tRNA isodecoder-specific primer pairs listed in Supplementary Table 1. Ct values obtained with primers specific for yeast Phe-tRNA were subtracted from Ct values obtained with isodecoder-specific primers. The charged fraction was calculated based on the relative difference between the delta-Ct value of a non-oxidized (representing total) and oxidized (representing charged) sample for each primer pair.

Regarding `COC(=O)CC[C@H](N)C(=O)OC` [dm-Glu, L-glutamic acid dimethylester], in the experiment on NIH-3T3 cells [1], the “TGFβ-induced depletion of TCA cycle intermediates and NEAAs” value is “rescued”.
Consider “TGFβ: transforming growth-factor beta; TGFβ-1 purchased from Peprotech”, for which the bulk translation entry in the experiment on NIH-3T3 cells [2] (low Gln (10%), 48 hours, compared to control cells (FIG. 1F)) was “reduced”. Also, the “free levels of most TCA cycle intermediates” value with NIH-3T3 cells [1] (low Gln (10%), TGFβ, 48 hours (FIG. 1H)) is recorded as “substantially reduced”. The “charging state of glutamine-tRNA” value in the experiment with NIH-3T3 cells [3] (low Gln (10%), TGFβ, 48 hours (FIG. 1D)) is listed as “profound uncharging”.
Take `COC(=O)CCC(=O)C(=O)OC` [dm-αKG, dimethyl alpha-ketoglutarate]: in the experiment on NIH-3T3 cells [2] (10% Gln, dm-αKG (FIG. 2B)), the translation result is listed as “promoted”. For the same compound, the “TGFβ-induced depletion of TCA cycle intermediates and NEAAs” value in the experiment with NIH-3T3 cells [1] is recorded as “rescued”. Besides, the “charging of glutamine-tRNA” value in the experiment with NIH-3T3 cells [3] (10% Gln, TGFβ 2 ng/mL, dm-αKG 5 mM with or without MSO 2 mM, 48 hours (FIG. 2A)) is listed as “restored”.
